Measurements: US7160725B2, “Hedgehog signaling promotes the formation of three dimensional cartilage matrices” (Curis, Inc., priority 2001, dated 2007)
Entries after “also recorded” stand apart in the source; their conditions may differ.

Key:
Format in all cases: cell-based, human
Mesenchymal stem cells [1] = assay: Change in mesenchymal stem cell behavior following factor treatment (culture observation)
Description: Mesenchymal stem cells were derived from human volunteers under general anesthesia. Bone marrow was harvested from the iliac crest by aspiration. Approximately 5 mL of bone marrow was suspended in essential medium containing 20% fetal bovine serum (FBS), antibiotics, and glutamine (Sigma). […] The non-adherent cells, as well as any debris, is easily separated from the adherent mesenchymal stem cells.
Mesenchymal stem cells were plated at a density of 1×10^6/mL in a six well plate. Following adhesion of the cells to the plate, cells were treated with either medium containing 20% FBS, with medium supplemented with TGFβ-1, or with medium supplemented with sonic hedgehog.
Following adhesion of cells to the plate, cells were treated with either medium containing 20% FBS (negative control), medium containing 1 ng/mL TGFβ-1, or medium containing 100 ng/mL of the lipid modified N-terminal fragment of sonic hedgehog. In all cases, the medium was changes twice per week throughout the duration of the experiment.

Mesenchymal stem cells [2] = assay: Alcian blue staining of paraffin sections of treated tissue; settings: 100 ng/mL lipid modified sonic hedgehog; 21 days; Alcian blue pH 2.5
Description: (§1) Mesenchymal stem cell cultures were established, as described in detail above. Cells were cultured in the presence of 20% FBS, 1 ng/mL TGFβ-1, or 100 ng/mL lipid modified sonic hedgehog, and the medium was changed twice per week. After 21 days in culture, tissue was harvested, and fixed overnight in formaline solution. Fixed tissue was washed, dehydrated, embedded in paraffin, and 4 μm sections were cut using a microtome. Sections were mounted on adhesive slides, and processed for histology and immunohistochemistry.
Mounted paraffin sections were stained with Alcian blue. Sections were treated with Alcian blue, pH 2.5 and 3% Acetic acid for five minutes. Following treatment, the sections were washed with ultrapure water.

Mesenchymal stem cells [3] = assay: Hematoxyline-eosine staining of paraffin sections of treated tissue; settings: 100 ng/mL lipid modified sonic hedgehog; 21 days
Description: as §1
Mounted paraffin sections were stained with hematoxyline-eosine, and viewed under a light microscope.

Mesenchymal stem cells [4] = assay: Immunohistochemistry of paraffin sections of treated tissue; settings: 100 ng/mL lipid modified sonic hedgehog; 21 days
Description: as §1
Mounted paraffin sections were processed for immunohistochemistry with an automatic stainer (DAKO TechMate™) using indirect streptavidin-biotin methods with a Fuchsintype chromogen. The following primary antibodies were used: vimentin, collagen II, Indian hedgehog, PTHrp, BMPR-IA, BMPR-IB, and BMPR-II. Immunohistochemistry was by standard methods except for the PTHrp antibody which required incubation of the tissue with proteinase K.

[5] = 1 ng/mL TGFβ-1, after a week in culture

Substance	cell morphology (Mesenchymal stem cells [1]; [5])	cell size (Mesenchymal stem cells [1]; [5])	proliferative effects on mesenchymal stem cells (Mesenchymal stem cells [1]; treatment with TGFβ-1)	Alcian blue staining (acid mucopolysaccharids) (Mesenchymal stem cells [2])	cell migration and clustering in the culture well (Mesenchymal stem cells [1]; 100 ng/mL lipid modified N-terminal fragment of sonic hedgehog, after the first two weeks in culture)	formation of a ball of tissue from the cell cluster (Mesenchymal stem cells [1]; 100 ng/mL lipid modified N-terminal fragment of sonic hedgehog, approximately three weeks in culture)	cell proliferation in culture (Mesenchymal stem cells [1]; 100 ng/mL lipid modified N-terminal fragment of sonic hedgehog, first two weeks in culture)	tissue organization and matrix production (hematoxyline-eosine, light microscope) (Mesenchymal stem cells [3])	BMPR-IA immunostaining (Mesenchymal stem cells [4])	BMPR-IB immunostaining (Mesenchymal stem cells [4])	BMPR-II immunostaining (Mesenchymal stem cells [4])	Indian hedgehog immunostaining (Mesenchymal stem cells [4])	PTHrp immunostaining (Mesenchymal stem cells [4])	collagen II immunostaining (Mesenchymal stem cells [4])	vimentin immunostaining (Mesenchymal stem cells [4])
TGFβ-1: TGFβ family polypeptide, added to the culture medium at 1 ng/mL	morphologically distinct	larger	robust proliferative effects	–	–	–	–	–	–	–	–	–	–	–	–
sonic hedgehog	–	–	–	Positive	appeared to migrate and clustered in one half the area of the culture well	condensed and migrated to form a small ball; also recorded: formed a grayish-white ball	proliferated efficiently	extensive organization of the tissue, the intricate folding of the layers, and the abundant matrix production; also recorded: highly organized, contains several folded layers, and produces abundant matrix	not detected; also recorded: immunonegative	immunopositive	immunopositive	immunonegative	immunopositive	strongly expressed; also recorded: strongly immunopositive	strongly immunopositive
